Source: patent US20130053372A1, “5-HT RECEPTOR MODULATORS” (Cambridge Enterprise Limited, priority 2010, published 2013)
pIC50, pKd: −log10 of the molar value.

Tests used:
[1] = target: T1, gp5-HT1B (Cavia porcellus, UniProt O08892); experiment: Guinea-pig iliac artery functional assay at gp5-HT1B (GPI); assay type: cell-based; parameters: from tissue; host or cells: guinea-pig common iliac artery segments; settings: classified as antagonism, agonism or no effect at 10 μM, against 5-nonyloxytryptamine contraction; monohydrochloride salt
Experimental: Protocol for Determination of Efficacy at gp5-HT1B Receptors in the Guinea-Pig Iliac Artery. (GPI)
Guinea-pig common iliac artery segments (1.0-1.5 mm long) from Dunkin-Harley guinea-pigs (250 g-500 g) were mounted under normalized tension in oxygenated (95% O2; 5% CO2) Krebs-Henseleit solution (NaCl, 118 mM; KCl, 4.7 mM; MgSO4, 1.2 mM; KH2PO4, 1.2 mM; NaHCO3, 25 mM; CaCl2, 2.5 mM; D-glucose, 11 mM; and with indomethacin, 10 μM). After 30 min equilibration, the vessels were precontracted with 5-HT (10 μM) and tested for endothelial integrity by administration of carbachol (10 μM), endothelium-intact vessels (relaxation ≧90% to carbachol) were used for the experiments. Concentration/contraction curves to cumulative addition of 5-nonyloxytryptamine (5-NOT; a 5-HT1B receptor-selective agonist) were constructed in 25 mM KCl Krebs-Henseleit solution (standard Krebs-Henseleit solution in which the KCl concentration was increased to 25 mM by equimolar substitution of NaCl). Vessels were incubated with putative antagonists for 30 min before construction of a concentration/contraction curve for 5-NOT. Contractile responses were expressed as a percentage of the tone induced by Krebs-Henseleit solution containing 90 mM KCl after substitution of an equivalent amount of NaCl with KCl in standard Krebs-Henseleit solution. Data were analysed using non-linear procedures by fitting to a logistic equation: E=(Rmax.[A]^nH)/EC50^nH+[A]^nH), where E is the contraction induced, [A] the concentration of the agonist, Rmax the maximal increase in tension induced, nH the slope function and EC50 the concentration of producing half the maximal contractile tone. Potency was assessed using the Gaddum equation: […] where [A] is the concentration of the putative antagonist and Ka its affinity constant at the 5-HT1B receptor. Compounds are classified as having antagonism, agonism or no effect at a dose concentration of 10 μM.

[2] = target: T1, gp5-HT1B; experiment: Guinea-pig frontal cortex membrane binding at gp5-HT1B (GPF); parameters: from tissue; host or cells: guinea-pig frontal cortex membranes; settings: monohydrochloride salt; for pKd: Kd from IC50 by Cheng & Prusoff, read-out: (GPF) Guinea-Pig Frontal Cortex membrane binding Affinity at gp5-HT1B Kd; for pIC50: [3H]GR125743 displacement
Experimental: Binding Protocol for Determination of Affinity in gp5-HY1B in Guinea-Pig Frontal Cortex Membranes. (GPF)
Guinea-pig frontal cortex membranes were resuspended in a buffer (50 mM Tris-HCl, 4 mM MgCl, 2.5 mM CaCl2, 1 mM EDTA and 120 mM NaCl pH 7.4) to a final concentration of 5-6 μg protein μl^−1. Receptor binding was initiated by the addition of membranes and carried out in a volume of 0.5 ml at 27° C. Non-specific binding was determined by pre-incubation for 15 min with 10 μM SB214461 (N-(3-(2-(dimethylamino)ethoxy)-4-methoxyphenyl)-2′-methyl-4′-(5-methyl-1,2,4-oxadiazol-3-yl)biphenyl-4-carboxamide, Eur. J. Pharmacol. 1997, 331, 169-174). The amount of binding in the presence or absence of a competing ligand was determined by incubation at 27° C. for 60 min with 0.6 nM [N-methyl ^3H] GR125743 (GE Life Science Products). Incubation was terminated by rapid vacuum filtration through GF/B glass fibre filters that had been presoaked in 3% polyethylenimine. Samples were washed 3 times with 1.5 ml ice-cold buffer (50 mM Tris-HCl, pH 7.4) and bound radioactivity determined by liquid scintillation counting after leaving the filters in contact with the scintillation fluid for at least 4 h before counting for 5 min in a liquid scintillation analyzer.
Specific binding was determined as B—BNS/(BTot—BNS) where B is the binding in the presence of a given competing ligand, BNS is the non-specific binding of radioligand (i.e. the binding in the presence of 10 μM SB214461), and BTot is the amount of binding of radioligand in the absence of a competing ligand. Data for specific binding as a function of the concentration of competing ligand were fitted to a single-site model to obtain a value for IC50. Kd values were derived from IC50 by the Cheng & Prusoff equation (Cheng Y, Prusoff W H (1973). Biochem Pharmacol 22, 3099-3108).

[3] = target: T2, rat r5-HT1B receptors (Rattus norvegicus, UniProt P28564); experiment: Binding affinity at rat r5-HT1B receptors, rat cerebral cortex membrane binding (RBA); settings: value in parentheses; monohydrochloride salt
T2 construct: from tissue
Experimental: Binding Protocol for Determination of Affinity at rat r5-HT 1B Receptors (RBA)
This binding affinity protocol was performed according to standard conditions disclosed in Eur. J. Pharmacol. 1985, 118, 1-12.

T1 sequence (O08892 whole entry): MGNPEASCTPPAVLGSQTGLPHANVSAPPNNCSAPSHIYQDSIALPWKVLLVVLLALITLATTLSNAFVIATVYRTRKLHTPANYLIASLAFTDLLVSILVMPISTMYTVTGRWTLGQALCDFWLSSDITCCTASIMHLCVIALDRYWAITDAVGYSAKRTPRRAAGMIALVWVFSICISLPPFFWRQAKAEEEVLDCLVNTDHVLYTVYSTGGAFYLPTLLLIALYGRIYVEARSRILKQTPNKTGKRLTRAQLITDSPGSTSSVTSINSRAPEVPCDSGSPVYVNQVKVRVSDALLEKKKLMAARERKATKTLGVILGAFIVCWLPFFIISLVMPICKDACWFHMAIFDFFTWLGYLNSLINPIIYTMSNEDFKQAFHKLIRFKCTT
T2 sequence (P28564 whole entry): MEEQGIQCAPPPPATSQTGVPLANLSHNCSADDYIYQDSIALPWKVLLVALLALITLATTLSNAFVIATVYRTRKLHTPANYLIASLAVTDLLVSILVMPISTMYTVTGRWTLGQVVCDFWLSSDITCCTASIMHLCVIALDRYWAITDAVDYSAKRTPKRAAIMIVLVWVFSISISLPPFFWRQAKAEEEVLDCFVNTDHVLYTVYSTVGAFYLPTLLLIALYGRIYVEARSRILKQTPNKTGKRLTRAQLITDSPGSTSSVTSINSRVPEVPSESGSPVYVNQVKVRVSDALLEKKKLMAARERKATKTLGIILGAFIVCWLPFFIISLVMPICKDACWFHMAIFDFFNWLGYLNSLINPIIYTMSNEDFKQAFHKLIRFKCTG

Structure (SMILES)	(GPI) Guinea-Pig Iliac Artery functional assay at gp5-HT1B [1]	pKd [2]	pIC50 [2]	pIC50 [3]
COc1ccc(N2CCCC2=O)cc1N1CCC(N(C)C)CC1 [13e, 1-(3-(4-(dimethylamino)piperidin-1-yl)-4-methoxyphenyl)pyrrolidin-2-one, reference compound]	Antagonist			
COc1ccc(N2CCCC2=O)cc1N(C)CCN(C)C [13f, 1-(3-((2-(dimethylamino)ethyl)(methyl)amino)-4-methoxyphenyl)pyrrolidin-2-one, reference compound]	No effect			
COc1ccc(N2CCCC2=O)cc1N1CCN(C)CC1 [Example 5a, 1-(4-methoxy-3-(4-methylpiperazin-1-yl)phenyl)pyrrolidin-2-one]	Antagonist	4.82	4.52	
COc1ccc(N2CCCC2=O)cc1N1C[C@@H](C)N[C@@H](C)C1 [Example 13a, 1-(3-((3R,5S)-3,5-dimethylpiperazin-1-yl)-4-methoxyphenyl)pyrrolidin-2-one]	Antagonist			
COc1ccc(N2CCOC2=O)cc1N1CCN(C)CC1 [Example 13b, 3-(4-methoxy-3-(4-methylpiperazin-1-yl)phenyl)oxazolidin-2-one]	Antagonist			
COc1ccc(N2CCCC2=O)cc1N1CCCN(C)CC1 [Example 13c, 1-(4-methoxy-3-(4-methyl-1,4-diazepan-1-yl)phenyl)pyrrolidin-2-one]	Antagonist			
COc1ccc(N2CCOC2=O)cc1N1C[C@@H](C)N[C@@H](C)C1 [Example 13d, 3-(3-((3R,5S)-3,5-dimethylpiperazin-1-yl)-4-methoxyphenyl)oxazolidin-2-one]	No effect			
COc1ccc(N2CCCS2(=O)=O)cc1N1CCCN(C)CC1 [Example 18b, 2-(4-methoxy-3-(4-methyl-1,4-diazepan-1-yl)phenyl)-1,1-dioxoisothiazolidine]				4.92
C[C@@H]1CN(c2cc(N3CCCC3=O)cc3c2OCC3)C[C@H](C)N1 [Example 26b, 1-(7-((3S,5R)-3,5-dimethylpiperazin-1-yl)-2,3-dihydrobenzofuran-5-yl)pyrrolidin-2-one]				5.02
CN1CCN(c2cc(N3CCCC3=O)ccc2F)CC1 [Example 30, 1-(4-fluoro-3-(4-methylpiperazin-1-yl)phenyl)pyrollidin-2-one]	Antagonist	5.70	5.40	
CN1CCN(c2cc(N3CCNS3(=O)=O)cc3ccoc23)CC1 [Example 50a, 2-(7-(4-methylpiperazin-1-yl)benzofuran-5-yl)-1,1-dioxo-1,2,5-thiadiazolidine]	Antagonist	6.15	5.85	6.07
